This is an account of results in patent publication US20230040081A1 (priority 2019, published 2023).

Assay [1] concerns viral RNA polymerase. Kind of assay: Potential inhibitors: Results Hit validation. It counts as biochemical. Conditions: test concentration not given. The procedure: (§1) Compound stocks were prepared at a concentration of 1 mM in 65% DMSO, at a volume of 5 μL each.
Assay [2] deals with viral RNA polymerase. Nature of the assay: Potential inhibitors: Results Screen. It counts as biochemical. Conditions: test concentration not given. As for the experimental part: as §1

`C[C@]1(C(=O)O)CC[C@@]2(C)CC[C@@]3(C)C4=CC(=O)c5cc(O)c(O)cc5[C@@]4(C)CC[C@]3(C)[C@H]2C1` [AD153413-04_H6]: the “Results Hit validation Median (% inhibition)” value in the assay with viral RNA polymerase [1] is listed as 52.2 % inhibition. The “Results Screen Median Screen (% inhibition)” value with viral RNA polymerase [2] was 77 % inhibition.
The corresponding values for `O=C(CCc1ccc(O)cc1)CC(CCc1ccc(O)cc1)OC1O[C@@H](COC(=O)/C=C/c2ccc(O)cc2)[C@H](O)[C@@H](O)[C@@H]1O` (stereo partly drawn) [AD153413-07_H11] are 45.2 % inhibition and 70 % inhibition.
As for `Oc1cc(O)cc(CCC/C=C\CCCCCCCCCc2cc(O)cc(O)c2)c1` [AD153413-03_H2], the “Results Hit validation Median (% inhibition)” value in the assay on viral RNA polymerase [1] came out at 48.9 % inhibition. Also, the “Results Screen Median Screen (% inhibition)” value in the assay with viral RNA polymerase [2] is listed as 73.1 % inhibition.
The corresponding values for `CCC(C)C(=O)OC1CC(C)C=C2C=CC(C)C(CCC(O)CC(O)CC(=O)O)C21` (stereo not drawn) [AD153413-16_G9] are 64.7 % inhibition and 87.4 % inhibition.
The corresponding values for `O=C(O)/C=C/c1ccccc1O[C@H]1O[C@@H](CO)[C@H](O)[C@@H](O)[C@@H]1O` [AD153413-02_F8] are 44 % inhibition and 86.7 % inhibition.
For `COc1cc(C)cc(C(=O)O)c1C1=C(O)C(=O)c2c(O)cccc2C1=O` [AD153413-06_A10] the same measures were 64.1 % inhibition and 72.4 % inhibition.
On to `COc1ccc2c(c1)OC1c3ccc(OC)cc3OCC21` (stereo not drawn) [AD153413-01_A10], for which the “Results Hit validation Median (% inhibition)” value in the assay on viral RNA polymerase [1] is 77.6 % inhibition. Further, in the assay with viral RNA polymerase [2], the “Results Screen Median Screen (% inhibition)” value turned out to be 84.5 % inhibition.
For `O=C(/C=C/c1ccc(O)c2c1C(C(=O)O)C(c1ccc(O)c(O)c1)O2)OC(Cc1ccc(O)c(O)c1)C(=O)O` (stereo not drawn) [AD153413-16_E3] the same measures were 55.9 % inhibition and 77.7 % inhibition.
The corresponding values for `CC(=O)O[C@H]1CC[C@]2(C)C(CC[C@@]3(C)C2[C@@H](O)C=C2[C@@H]4[C@H](C)[C@@H](C)CC[C@@]4(C)CC[C@@]23C)[C@]1(C)C(C)=O` (stereo partly drawn) [AD153413-25_A8] are 86.3 % inhibition and 73.8 % inhibition.
With `COc1ccc(CCC(=O)O)cc1` [AD153413-03_F11], in the assay with viral RNA polymerase [1], the “Results Hit validation Median (% inhibition)” value stood at 41.8 % inhibition. Also, in the assay with viral RNA polymerase [2], the “Results Screen Median Screen (% inhibition)” value is 70.6 % inhibition.
The corresponding values for `C=C(/C=C/[C@@H](CCC(=O)O)C(C)C)CCC(C)=O` [AD153413-08_B4] are 41.9 % inhibition and 73.6 % inhibition.
`COc1cc(C2c3c(cc(OC)c(O)c3O)CC(CO)C2CO[C@H]2O[C@@H](C(=O)O)[C@H](O)[C@@H](O)[C@@H]2O)cc(OC)c1O` (stereo partly drawn) [AD153413-11_A11]: in the assay with viral RNA polymerase [1], the “Results Hit validation Median (% inhibition)” value was 57.1 % inhibition. Besides, the “Results Screen Median Screen (% inhibition)” value in the assay with viral RNA polymerase [2] was found to be 83 % inhibition.
For `COc1cc(-c2oc3cc(O[C@H]4O[C@@H](CO)[C@H](O)[C@@H](O)[C@@H]4O)c(OC)c(O)c3c(=O)c2OC)ccc1O` [AD153413-17_A6], the “Results Hit validation Median (% inhibition)” value with viral RNA polymerase [1] is recorded as 62.2 % inhibition. In the assay with viral RNA polymerase [2], the “Results Screen Median Screen (% inhibition)” value was 77.1 % inhibition.
In the case of `CCC(C)C(=O)O[C@H]1CCC=C2C=C[C@H](C)[C@H](CC[C@@H](O)C[C@@H](O)CC(=O)O)[C@H]21` (stereo partly drawn) [AD153413-09_E2], the “Results Hit validation Median (% inhibition)” value with viral RNA polymerase [1] amounted to 60.5 % inhibition. Moreover, the “Results Screen Median Screen (% inhibition)” value with viral RNA polymerase [2] stood at 90.3 % inhibition.
For the molecule `CC(O)CC1CCC(C(C)C(=O)OC(C)CC2CCC(C(C)C(=O)O)O2)O1` (stereo not drawn) [AD153413-16_A3], the “Results Hit validation Median (% inhibition)” value in the assay with viral RNA polymerase [1] stood at 44.5 % inhibition. Also, the “Results Screen Median Screen (% inhibition)” value in the assay on viral RNA polymerase [2] is recorded as 83 % inhibition.
For `CC1(C)CCC[C@@]2(C)[C@H]1[C@H](O)C=C1COC(=O)[C@]12O` (racemic) [AD153413-10_B3] the same measures were 43.3 % inhibition and 60.9 % inhibition.
For `CC1=C[C@H](C/C(C)=C/COc2c3occc3cc3ccc(=O)oc23)OC1=O` [AD153413-25_H9] the same measures were 51.1 % inhibition and 79.1 % inhibition.
For `C/C=C/c1ccc2c(c1)[C@H](C)[C@@H](c1ccc(O)cc1)O2` [AD153413-19_H4] the same measures were 50.8 % inhibition and 98.8 % inhibition.
With `COC(=O)[C@H](Cc1ccccc1)NC(=O)c1ccccc1` [AD153413-18_A11], the “Results Hit validation Median (% inhibition)” value in the assay on viral RNA polymerase [1] was 60.6 % inhibition. In the assay with viral RNA polymerase [2], the “Results Screen Median Screen (% inhibition)” value was 81 % inhibition.
For `CCCCCCCC/C(=C/CC(=O)O)C(=O)O` [AD153413-16_C3] the same measures were 40.5 % inhibition and 84.3 % inhibition.
For `COc1cc(-c2cc(=O)c3c(O)c(C4OC(CO)C(O)C(OC5OC(CO)C(O)C(O)C5OC5OC(CO)C(O)C(O)C5O)C4OC(=O)/C=C/c4ccc(O)c(O)c4)c(O)cc3o2)ccc1O` (stereo not drawn) [AD153413-17_A4] the same measures were 52.3 % inhibition and 69.6 % inhibition.
The corresponding values for `CC(=O)OC1CC2C(COC(=O)CC(C)C)=CO[C@H](OC(=O)CC(C)C)C2C12CO2` (stereo partly drawn) [AD153413-09_A3] are 55.9 % inhibition and 89.7 % inhibition.
On to `CC(C)C1NC(=O)C2CCCN2C1=O` (stereo not drawn) [AD153413-12_C11], for which the “Results Hit validation Median (% inhibition)” value with viral RNA polymerase [1] was determined as 44.2 % inhibition. The “Results Screen Median Screen (% inhibition)” value in the assay with viral RNA polymerase [2] is on record as 61.7 % inhibition.
For `COc1cc(C2OC(c3cc(OC)c(OC)c(OC)c3)C(C)C2C)cc(OC)c1OC` (stereo not drawn) [AD153413-14_E9] the same measures were 43.8 % inhibition and 67.1 % inhibition.
On to `OC[C@@H]1O[C@H](Oc2ccc(O)c3cccc(O)c23)[C@@H](O)[C@H](O)[C@H]1O` [AD153413-14_C5], for which, in the assay with viral RNA polymerase [1], the “Results Hit validation Median (% inhibition)” value stood at 52.6 % inhibition. In addition, the “Results Screen Median Screen (% inhibition)” value in the assay on viral RNA polymerase [2] was determined as 63.3 % inhibition.
As to `O=C1c2ccc(O)cc2O[C@H](c2ccc(O)c(O)c2)[C@H]1O` [AD153413-21_A6], the “Results Hit validation Median (% inhibition)” value in the assay on viral RNA polymerase [1] is given as 54.7 % inhibition. Besides, the “Results Screen Median Screen (% inhibition)” value in the assay on viral RNA polymerase [2] was 68.8 % inhibition.
As for `COc1cc(OC)cc([C@@H](C)C(=O)c2ccc(O)cc2O)c1` [AD153413-09_A6], in the assay on viral RNA polymerase [1], the “Results Hit validation Median (% inhibition)” value was 64.2 % inhibition. In addition, in the assay on viral RNA polymerase [2], the “Results Screen Median Screen (% inhibition)” value is on record as 81.1 % inhibition.
The corresponding values for `NC(=O)c1c[nH]c(Cc2ccccc2)cc1=O` [AD153413-06_B9] are 42.9 % inhibition and 80 % inhibition.
The corresponding values for `COc1cc(O)c2c(=O)c(O[C@H]3O[C@H](C)[C@@H](O)[C@H](O)[C@@H]3O)c(-c3ccc(O)cc3)oc2c1O` [AD153413-05_B3] are 43.6 % inhibition and 72.4 % inhibition.
For `C=C(C)C1=C[C@@]2(C)C(=CC1=O)CC[C@@H](O)[C@@H]2C` [AD153413-10_F2] the same measures were 50.8 % inhibition and 80 % inhibition.
Take `COc1cc(O)c2c(c1)C(O)C(C)OC2=O` (stereo not drawn) [AD153413-16_B4]: the “Results Hit validation Median (% inhibition)” value in the assay on viral RNA polymerase [1] stood at 53.6 % inhibition. For the same molecule, in the assay with viral RNA polymerase [2], the “Results Screen Median Screen (% inhibition)” value was 72.5 % inhibition.
For `CCCCC(C)C(=O)C(CC(C)CCCCCCC(O)CC(O)C(C)NC(C)=O)OC(=O)CC(CC(=O)O)C(=O)O` (stereo not drawn) [AD153413-12_D11] the same measures were 50.1 % inhibition and 73.7 % inhibition.
The corresponding values for `CC[C@H](C1=C(O)C(C)(C)C(=O)C(C)(C)C1=O)c1c(O)cc(O)c(C(=O)C(C)C)c1O` [AD153413-09_B9] are 61.5 % inhibition and 85.2 % inhibition.
The corresponding values for `O=C(OC[C@@H]1O[C@H](Oc2ccc(O)cc2CO)[C@@H](O)[C@H](O)[C@H]1O)c1ccccc1` (racemic) [AD153413-11_H9] are 54.9 % inhibition and 60.5 % inhibition.
In the case of `CC[C@H](C)/C=C(C)/C=C/C(=O)Cc1cc(O)c(C)c(O)c1C=O` [AD153413-17_A5], the “Results Hit validation Median (% inhibition)” value with viral RNA polymerase [1] was 70.9 % inhibition. In addition, the “Results Screen Median Screen (% inhibition)” value with viral RNA polymerase [2] turned out to be 71 % inhibition.
For `COC(=O)C1=COC(OC2O[C@@H](CO)[C@H](O)[C@@H](O)[C@@H]2O)[C@H]2C1C=CC21C=C(C(C)CC(=O)/C=C/c2ccc(O)cc2)C(=O)O1` (stereo partly drawn) [AD153413-23_G3] the same measures were 61.7 % inhibition and 60.5 % inhibition.
For the molecule `CC1CCC2(C)CCC3(C)C(=CCC4C5(C)CCC(O)C(C)(C(=O)O)C5CCC43C)C2C1C` (stereo not drawn) [AD153413-25_A7], the “Results Hit validation Median (% inhibition)” value in the assay with viral RNA polymerase [1] amounted to 70 % inhibition. In the assay with viral RNA polymerase [2], the “Results Screen Median Screen (% inhibition)” value is 85.9 % inhibition.
The corresponding values for `CC1(C)C2CC[C@]3(C)C(C(=O)C=C4[C@H]5C[C@@](C)(C(=O)O)CC[C@]5(C)CC[C@]43C)[C@@]2(C)CC[C@@H]1O` (stereo partly drawn) [AD153413-01_B11] are 72.1 % inhibition and 75.6 % inhibition.
As for `CC(=O)O[C@H]1C[C@@H](O)[C@]23COC(O)[C@@]1(C)C2C[C@H](O)[C@@]1(C)C3C(=O)[C@@H](OC(C)=O)[C@]2(C)[C@@H](c3ccoc3)C[C@@H]3O[C@@]321` (stereo partly drawn) [AD153413-19_D3], the “Results Hit validation Median (% inhibition)” value in the assay with viral RNA polymerase [1] worked out at 41.6 % inhibition. Further, the “Results Screen Median Screen (% inhibition)” value with viral RNA polymerase [2] came to 71.8 % inhibition.
